Test results from patent US20040147006A1, “Peptides that bind to DNA and inhibit DNA replication, and methods of use” (priority 2001, published 2004).
“Also recorded” adds a separate entry of the source. Read-outs that look alike come from different tables or passages of the source.

Tests used:
[1] = biological target: T1, T-ag oligomerization on 64-bp oligonucleotide containing the SV40 core origin (Simian virus 40, UniProt P03070); format: biochemical; details: for Effect on T-ag oligomerization: peptide final concentration 0.5 mM
T1 construct: made in house
Method: (§1) Electrophoretic mobility shift assays (EMSA). Double stranded oligonucleotides, ^32P labeled at 5′ termini, were prepared using standard procedures (Sambrook, J., et al., 1989, Cold Spring Harbor Laboratory, Cold Spring Harbor, N.Y.; Sreekumar, K. A., et al., 2000, p. 49-67; In, L. Raptis (ed.), Methods in Molecular Biology; SV40 Protocols; Humana Press; Totowa, N.J.). EMSA rections were conducted using conditions for SV40 in vitro replication (Wobbe, C. R., et al., 1985, Proc. Natl. Acad. Sci. USA 82:5710-571 4). The reactions (20 μl) contained 7 mM MgCl2, 0.5 mM DTT, 4 mM AMP-PNP, 40 mM creatine phosphate (pH 7.6), 0.48 μg of creatine phosphate kinase, 5 μg of bovine serum albumin, 0.8 μg of Hae III-digested pBR322 ([…]; used as a nonspecific competitor), about 25 fmol of double stranded oligonucleotide, T-ag and the indicated amounts of peptide. After a 20-min incubation at 37° C., glutaraldehyde (0.1 % final concentration) was added and the reaction products were further incubated for 5 min. The reactions were stopped by the addition of 5 μl of 6× loading dye II (15% Ficoll, 0.25% bromophenol blue, and 0.25% xylene cyanol; Sambrook, J., et al., 1989, Cold Spring Harbor Laboratory, Cold Spring Harbor, N.Y.) to the reaction mixtures. Samples containing T-ag were applied to 3.5 to 12% gradient polyacrylamide gels and electrophoresed in 0.5% Tris-borate-EDTA (TBE) pH 8.4 for about 1.5 h (10 watts).

[2] = tested on: 64 bp SV40 core origin (SEQ ID NO: 24); test: Peptide band shift (EMSA without T-ag), core origin; format: binding; details: SV40 core origin
Method: as §1
[…] Moreover, the samples were loaded on 8% polyacryamide gels and electrophoresed in 0.5% TBE pH 8.4 for about 3h (about 200 volts). The gels were dried on Whatman 3 MM paper, subjected to autoradiography and quantitated using a Molecular Dynamics PhosphorImager (Sunnyvale, Calif.).

[3] = tested on: 64 bp enhancer control (SEQ ID NO: 29); test: Peptide band shift (EMSA without T-ag), control oligonucleotide; format: binding; details: 64 bp enhancer control oligonucleotide; listed as peptide T124A13
Method: as §1
Peptide based band shift reactions were identical to those described above except that T-ag was omitted from the reactions and the final glutaraldehyde concentration was reduced to 0.05 %. Moreover, the samples were loaded on 8% polyacryamide gels and electrophoresed in 0.5% TBE pH 8.4 for about 3h (about 200 volts). The gels were dried on Whatman 3 MM paper, subjected to autoradiography and quantitated using a Molecular Dynamics PhosphorImager (Sunnyvale, Calif.).

[4] = tested on: double stranded oligonucleotide containing the SV40 core origin (SEQ ID NO: 24); test: Nitrocellulose filter binding of peptide to DNA; details: for Binding to DNA in filter binding assay, mutant set: 20 nmoles peptide (1 mM final concentration); for Binding to DNA in filter binding assay, E1 peptides: peptide 0.25 mM and 0.5 mM
Method: Nitrocellulose filter binding reactions. Assay for the ability of NLS based peptides to bind to DNA were performed using published methods (Sreekumar, K. A., et al., 2000, In, L. Raptis (ed.), Methods in Molecular Biology: SV40 Protocols; Humana Press, Totowa, N.J. p. 49-67). Reactions (20 μl) contained 7 mM MgCl2, 0.5 mM DTT, 4 mM AMP-PNP, 40 mM creatine phosphate (di-Tris salt pH7.7), 0.48 μg of creatine phosphokinase, 0.2 mg of bovine serum albumin per ml, 0.8 μg of Hae III-digested pBR322 DNA, about 25 fmol of a given oligonucleotide (about 10^6 cpm/pmol) and the indicated peptide. After incubation for 20 min at 37° C., the mixtures were filtered under suction through alkali-treated nitrocellulose filters (Millipore type HAWP; pore size, 0.4 μm; stored in 100 mM Tris-HCl, pH7.5). The filters were then washed with 5 ml of 100 mM Tris-HCl, pH 7.5, and were dried and counted in a Beckman LS 3801 scintillation counter.

T-ag helicase ATPase = biological target: T2, T-ag helicase ATPase (Simian virus 40, UniProt P03070); format: biochemical, SV40; details: duplicate lanes, FIG. 13
T2 construct: made in house
Method: A method for measuring ATP hydrolysis involves incubating T-ag with a ^32P-labeled ATP, cross-linking with gluteraldehyde, removing unincorporated nucleotides by passing the reaction products over a Bio-Spin P-30 column, drying the eluate in a Speedvac, resuspending the samples in formic acid, and performing thin layer chromatography on PEI (polyethyleneimine) plates. Using autoradiography, the amount of ATP, ADP and AMP associated with T-ag was determined.

[5] = tested on: SV40 DNA replication in HeLa human cell crude extracts; test: SV40 in vitro replication reaction; format: biochemical; details: 30 μl reactions, with T-ag
Method: DNA replication reactions. SV40 in vitro replication reactions were conducted as described by Wobbe et al 1985, Proc. Natl. Acad. Sci. USA 82:5710-5714 (see also, Bullock, P. A., et al., 1998, p. 223-243. In S. Cotterill (ed.), Eukaryotic DNA Replication; A practical Approach, Oxford University Press, Oxford). Reaction mixtures (30 μl) contained 7 mM MgCl2, 0.5 mM DTT, 4 mM ATP, 40 mM creatine phosphate (di-Tris salt pH7.7), 1.4 μg of creatine phosphokinase, 12.5 μg/ml pSV01ΔEP, dATP, dGTP, and dTTP (100 μM each), CTP, GTP, and UTP (200 μM each), [α-^32p] dCTP (20 μM, about 5 cpm/fmol) and the indicated peptides.

[6] = 13-mer set at 1 mM final concentration (20 nmoles)
[7] = T-ag 6 pmol, 64-bp SV40 core origin, peptide concentration not given
[8] = peptide 0.5 mM to 2 mM, replication conditions, pBR322 competitor
[9] = peptide final concentration 1 mM (20 nmoles), T-ag 6 pmol
[10] = high peptide concentrations (1 mM and 2 mM)

T1 sequence (P03070 whole entry): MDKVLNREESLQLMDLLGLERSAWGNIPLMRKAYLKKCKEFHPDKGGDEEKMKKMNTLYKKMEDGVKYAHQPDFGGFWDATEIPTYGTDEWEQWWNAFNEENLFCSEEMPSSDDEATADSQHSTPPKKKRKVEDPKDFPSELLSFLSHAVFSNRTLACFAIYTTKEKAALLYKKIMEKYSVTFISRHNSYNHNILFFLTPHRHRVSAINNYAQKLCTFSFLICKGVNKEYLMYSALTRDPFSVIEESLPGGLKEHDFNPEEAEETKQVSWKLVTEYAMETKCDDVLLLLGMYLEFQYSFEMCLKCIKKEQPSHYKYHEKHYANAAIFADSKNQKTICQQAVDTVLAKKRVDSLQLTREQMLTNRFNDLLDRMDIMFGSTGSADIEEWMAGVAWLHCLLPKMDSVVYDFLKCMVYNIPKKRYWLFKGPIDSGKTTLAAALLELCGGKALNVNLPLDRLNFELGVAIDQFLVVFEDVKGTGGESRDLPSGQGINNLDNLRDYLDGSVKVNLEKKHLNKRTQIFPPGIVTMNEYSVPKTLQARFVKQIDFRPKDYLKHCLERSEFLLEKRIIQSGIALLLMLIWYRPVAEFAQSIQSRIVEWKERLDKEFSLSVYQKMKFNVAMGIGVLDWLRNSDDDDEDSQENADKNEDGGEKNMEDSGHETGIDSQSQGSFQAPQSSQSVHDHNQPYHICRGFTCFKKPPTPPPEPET
T2 sequence (P03070 whole entry): as above

PPKKKRKVpTATADSQHS [peptide 317]
Effect on T-ag oligomerization (hexamer and double hexamer formation) [1]: no inhibition of T-ag assembly

ADSQHSAPPKKKR [T124A13]
Peptide/DNA complex formation in peptide band shift [2, 6]: does not affect DNA binding | Peptide/DNA complex formation in peptide band shift ([2]; 13-mer set at 1 mM final concentration (20 nmoles), listed as peptide T124A13): bound to DNA and formed a complex; also recorded: Mobility shifts are seen | Peptide/DNA complex formation in peptide band shift [3]: does not require a large degree of sequence specificity; also recorded: requires little demonstrable nucleotide sequence specificity; also recorded: Mobility shifts are seen | Effect on T-ag oligomerization, mutant set (FIG. 11 Panel B) [1, 7]: does not destroy the inhibitory property of the peptide | Binding to DNA in filter binding assay, mutant set [4]: bind to DNA as well as does wild type peptide T-213

ADSQHSpTPPKKKR [peptide 113]
Effect on T-ag oligomerization (hexamer and double hexamer formation) [1]: little or no effect on T-ag oligomerization | Effect on T-ag oligomerization, mutant set (FIG. 11 Panel B) [1]: did not; also recorded: no inhibition of oligomerization of T-ag | Effect on ATPase of T-ag (T-ag helicase ATPase): did not modulate the ATPase of T-ag activity | Binding to DNA in filter binding assay [4, 8]: did not bind DNA at significant levels | Binding to DNA in filter binding assay ([4]; peptide 0.5 mM to 2 mM, replication conditions, pBR322 competitor, listed as peptide T-113): did not bind to the oligonucleotide at significant levels

KKRRKRVKLVGPSTSEQSNASESSG [SEQ ID NO: 30]
Inhibition of SV40 in vitro DNA replication [5]: retains ability to inhibit replication of DNA | Inhibition of SV40 in vitro DNA replication ([5]; listed as SEQ ID NO:30): good inhibitor of DNA replication

PPKKKRpTADSQHS [peptide 313]
Effect on T-ag oligomerization (hexamer and double hexamer formation) [1]: little or no effect on T-ag oligomerization

ATADSQHSTPPKKKRKV (Virus; Host Macaca mulatta; DOMAIN (1)..(17) Domain SV40 T-Antigen (116)...(132)) [peptide 217, 17-mer of SV40 T-ag with complete NLS]
Effect on T-ag oligomerization ([1]; T-ag 6 pmol): inhibited T-ag oligomerization | Effect on T-ag oligomerization (hexamer and double hexamer formation) [1, 9]: completely blocked | Inhibition of SV40 in vitro DNA replication [5]: not an efficient inhibitor of DNA replication; also recorded: unable to inhibit replication | Binding to DNA in filter binding assay [4, 10]: saturated | Binding to DNA in filter binding assay ([4]; peptide 0.5 mM): significant binding was observed | Binding to DNA in filter binding assay [4, 8]: relatively high affinity for binding to DNA | Binding to DNA in filter binding assay ([4]; peptide 0.5 mM to 2 mM, replication conditions, pBR322 competitor, listed as peptide T-217): higher affinity for this DNA than does peptide T-213

ADSQHSTAPKKKR [P125A13]
Effect on T-ag oligomerization, mutant set (FIG. 11 Panel B) [1, 7]: Full inhibition of oligomerization | Binding to DNA in filter binding assay, mutant set [4]: bind to DNA as well as does wild type peptide T-213

ADSQHSTPAKKKR [P126A13]
Effect on T-ag oligomerization, mutant set (FIG. 11 Panel B) [1, 7]: Full inhibition of oligomerization | Binding to DNA in filter binding assay, mutant set [4]: bind to DNA as well as does wild type peptide T-213

SQHSTPPKK [peptide 29]
Peptide/DNA complex formation in peptide band shift ([2]; peptide 2 mM): binding was not detected

PPKKKRTADSQHS [peptide 413, rearranged control 13-mer]
Peptide/DNA complex formation in peptide band shift [2, 6]: did not | Effect on T-ag oligomerization (hexamer and double hexamer formation) [1, 9]: little or no effect on T-ag oligomerization | Binding to DNA in filter binding assay [4, 10]: Low levels of binding | Binding to DNA in filter binding assay ([4]; high peptide concentrations (1 mM and 2 mM), listed as peptide T-413): low levels of binding

RKVLGSSQNSSGSEASEpTPVKRRK [peptide E1-P125]
Effect on ATPase of T-ag (T-ag helicase ATPase): had no effect | Binding to DNA in filter binding assay, E1 peptides [4]: binds to DNA at levels similar to the control peptide E1-425

ATADSQHSpTPPKKKRKV [peptide 117]
Effect on T-ag oligomerization (hexamer and double hexamer formation) [1]: no inhibition of T-ag assembly | Binding to DNA in filter binding assay [4, 10]: observed to bind to DNA | Binding to DNA in filter binding assay ([4]; high peptide concentrations (1 mM and 2 mM), listed as peptide T-117): observed to bind to DNA at higher peptide concentrations

SEASETPVKRRKGKRKVLGSSQNSS [control BP-E125]
Effect on T-ag assembly, E1 Cdk/NLS peptides ([1]; 5 nmol peptide, final concentration 0.25 mM, T-ag 6 pmol): found not to block T-ag assembly | Inhibition of SV40 in vitro DNA replication [5]: not an efficient inhibitor of replication | Binding to DNA in filter binding assay, E1 peptides [4]: bound to DNA at much reduced levels

PPKKKRKVTATADSQHS [peptide 417, rearranged control 17-mer]
Effect on T-ag oligomerization ([1]; T-ag 6 pmol): did not inhibit | Effect on T-ag oligomerization ([1]; T-ag 6 pmol, listed as peptide T-417): did not | Binding to DNA in filter binding assay [4, 10]: observed to bind to DNA | Binding to DNA in filter binding assay ([4]; high peptide concentrations (1 mM and 2 mM), listed as peptide T-417): observed to bind to DNA at higher peptide concentrations
